The assay has as its target human JAK1 (a.a. 837-1142). Kind of assay: In vitro JAK kinase assay (HTRF, phosphorylation of a biotinylated peptide), JAK1. The assay is classed as biochemical. The note with it: measured at 1 mM ATP; JAK2 IC50 / JAK1 IC50. Summed up: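 Phosphorylation of a biotinylated peptide by purified His-tagged JAK catalytic domains (insect-cell baculovirus expression) ran 1 hr at room temperature. After stopping with EDTA, Eu-Py20 and SA-APC were bound for 40 minutes and HTRF measured.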
(In general: TR-FRET usually uses a lanthanide donor and a delayed reading to cut background.)
Consider `N#CCC1(n2cc(-c3ncnc4[nH]ccc34)cn2)CN(C2CCN(C(=O)c3cc4cccc(C(F)(F)F)c4s3)CC2)C1` [Example 95, [3-[4-(7H-pyrrolo[2,3-d]pyrimidin-4-yl)-1H-pyrazol-1-yl]-1-(1-{[7-(trifluoromethyl)-1-benzothien-2-yl]carbonyl}piperidin-4-yl)azetidin-3-yl]acetonitrile], for which the “IC50 Ratio JAK2/JAK1” value worked out at 2.7.

As to `N#CCC1(n2cc(-c3ncnc4[nH]ccc34)cn2)CN(C2CCN(C(=O)c3csc4ccccc34)CC2)C1` [Example 96, {1-[1-(1-benzothien-3-ylcarbonyl)piperidin-4-yl]-3-[4-(7H-pyrrolo[2,3-d]pyrimidin-4-yl)-1H-pyrazol-1-yl]azetidin-3-yl} acetonitrile], the “IC50 Ratio JAK2/JAK1” value was 0.5. With `N#CCC1(n2cc(-c3ncnc4[nH]ccc34)cn2)CN(C2CCN(C(=O)C3CCc4ccccc4C3)CC2)C1` (stereo not shown) [Example 97, {3-[4-(7H-pyrrolo[2,3-d]pyrimidin-4-yl)-1H-pyrazol-1-yl]-1-[1-(1,2,3,4-tetrahydronaphthalen-2-ylcarbonyl)piperidin-4-yl]azetidin-3-yl}acetonitrile] the figure was 2.2; with `N#CCC1(n2cc(-c3ncnc4[nH]ccc34)cn2)CN(C2CCN(C(=O)C3CCC(C(F)(F)F)CC3)CC2)C1` (stereo not shown) [Example 98, [3-[4-(7H-pyrrolo[2,3-d]pyrimidin-4-yl)-1H-pyrazol-1-yl]-1-(1-{[4-(trifluoromethyl)cyclohexyl]carbonyl}piperidin-4-yl)azetidin-3-yl] acetonitrile], 3.7; with `N#CCC1(n2cc(-c3ncnc4[nH]ccc34)cn2)CN(C2CCN(C(=O)C3CCC(F)(F)CC3)CC2)C1` [Example 100, {1-{1-[(4,4-difluorocyclohexyl)carbonyl]piperidin-4-yl}-3-[4-(7H-pyrrolo[2,3-d]pyrimidin-4-yl)-1H-pyrazol-1-yl]azetidin-3-yl}acetonitrile], 6.6.

For `N#CCC1(n2cc(-c3ncnc4[nH]ccc34)cn2)CN(C2CCN(C(=O)C3CCCC3)CC2)C1` [Example 101, {1-[1-(cyclopentylcarbonyl)piperidin-4-yl]-3-[4-(7H-pyrrolo[2,3-d]pyrimidin-4-yl)-1H-pyrazol-1-yl]azetidin-3-yl}acetonitrile], the “IC50 Ratio JAK2/JAK1” value turned out to be 8.3.

For the compound `N#CCC1(n2cc(-c3ncnc4[nH]ccc34)cn2)CN(C2CCN(C(=O)C3CCC(c4ccc(Cl)cc4)CC3)CC2)C1` (stereo not shown) [Example 105, {1-(1-{[4-(4-chlorophenyl)cyclohexyl]carbonyl}piperidin-4-yl)-3-[4-(7H-pyrrolo[2,3-d]pyrimidin-4-yl)-1H-pyrazol-1-yl]azetidin-3-yl}acetonitrile], the “IC50 Ratio JAK2/JAK1” value is reported as 7.2. For `N#CCC1(n2cc(-c3ncnc4[nH]ccc34)cn2)CN(C2CCN(C(=O)Cc3ccccc3)CC2)C1` [Example 109, {1-[1-(phenylacetyl)piperidin-4-yl]-3-[4-(7H-pyrrolo[2,3-d]pyrimidin-4-yl)-1H-pyrazol-1-yl]azetidin-3-yl} acetonitrile] the value was 1.1; for `N#CCC1(n2cc(-c3ncnc4[nH]ccc34)cn2)CN(C2CCN(C(=O)C3(c4ccccc4)CC3)CC2)C1` [Example 110, {1-{1-[(1-phenylcyclopropyl)carbonyl]piperidin-4-yl}-3-[4-(7H-pyrrolo[2,3-d]pyrimidin-4-yl)-1H-pyrazol-1-yl]azetidin-3-yl}acetonitrile], 1.6; for `N#CCC1(n2cc(-c3ncnc4[nH]ccc34)cn2)CN(C2CCN(C(=O)C3(c4ccc(Cl)cc4)CC3)CC2)C1` [Example 111, {1-(1-{[1-(4-chlorophenyl)cyclopropyl]carbonyl}piperidin-4-yl)-3-[4-(7H-pyrrolo [2,3-d]pyrimidin-4-yl)-1H-pyrazol-1-yl]azetidin-3-yl}acetonitrile], 2.6. With `N#CCC1(n2cc(-c3ncnc4[nH]ccc34)cn2)CN(C2CCN(C(=O)Cc3c(Cl)cccc3Cl)CC2)C1` [Example 112, {1-{1-[(2,6-dichlorophenyl)acetyl]piperidin-4-yl}-3-[4-(7H-pyrrolo[2,3-d]pyrimidin-4-yl)-1H-pyrazol-1-yl]azetidin-3-yl} acetonitrile] the figure was 8.2. With `Cc1cc(C)c(CC(=O)N2CCC(N3CC(CC#N)(n4cc(-c5ncnc6[nH]ccc56)cn4)C3)CC2)c(C)c1` [Example 113, {1-[1-(mesitylacetyl)piperidin-4-yl]-3-[4-(7H-pyrrolo[2,3-d]pyrimidin-4-yl)-1H-pyrazol-1-yl]azetidin-3-yl} acetonitrile] the figure was 4.2; with `N#CCC1(n2cc(-c3ncnc4[nH]ccc34)cn2)CN(C2CCN(C(=O)c3ccc(-c4ccccc4)cc3)CC2)C1` [Example 114, {1-[1-(biphenyl-4-ylcarbonyl)piperidin-4-yl]-3-[4-(7H-pyrrolo[2,3-d]pyrimidin-4-yl)-1H-pyrazol-1-yl]azetidin-3-yl}acetonitrile], 1.5; with `N#CCC1(n2cc(-c3ncnc4[nH]ccc34)cn2)CN(C2CCN(C(=O)c3ccc(-c4ccncc4)c(F)c3)CC2)C1` [Example 117, {1-[1-(3-fluoro-4-pyridin-4-ylbenzoyl)piperidin-4-yl]-3-[4-(7H-pyrrolo[2,3-d]pyrimidin-4-yl)-1H-pyrazol-1-yl]azetidin-3-yl} acetonitrile], 10.0.

In the case of `N#CCC1(n2cc(-c3ncnc4[nH]ccc34)cn2)CN(C2CCN(C(=O)c3ccc(-c4ccc(C#N)c(F)c4)c(F)c3)CC2)C1` [Example 119, 4′-[(4-{3-(cyanomethyl)-3-[4-(7H-pyrrolo[2,3-d]pyrimidin-4-yl)-1H-pyrazol-1-yl]azetidin-1-yl}piperidin-1-yl)carbonyl]-2′,3-difluorobiphenyl-4-carbonitrile], the “IC50 Ratio JAK2/JAK1” value is 14.0. Take `N#CCC1(n2cc(-c3ncnc4[nH]ccc34)cn2)CN(C2CCN(C(=O)c3ccc(-c4cccnc4)c(F)c3)CC2)C1` [Example 123, {1-[1-(3-fluoro-4-pyridin-3-ylbenzoyl)piperidin-4-yl]-3-[4-(7H-pyrrolo[2,3-d]pyrimidin-4-yl)-1H-pyrazol-1-yl]azetidin-3-yl} acetonitrile]: the “IC50 Ratio JAK2/JAK1” value amounted to 3.8. With `N#CCC1(n2cc(-c3ncnc4[nH]ccc34)cn2)CN(C2CCN(C(=O)c3ccc(-c4ccccc4C#N)c(F)c3)CC2)C1` [Example 124, 4′-[(4-{3-(cyanomethyl)-3-[4-(7H-pyrrolo[2,3-d]pyrimidin-4-yl)-1H-pyrazol-1-yl]azetidin-1-yl}piperidin-1-yl)carbonyl]-2′-fluorobiphenyl-2-carbonitrile] the figure was 8.4; with `N#CCC1(n2cc(-c3ncnc4[nH]ccc34)cn2)CN(C2CCN(C(=O)c3ccc(-c4cccc(C#N)c4)c(F)c3)CC2)C1` [Example 125, 4′-[(4-{3-(cyanomethyl)-3-[4-(7H-pyrrolo[2,3-d]pyrimidin-4-yl)-1H-pyrazol-1-yl]azetidin-1-yl}piperidin-1-yl)carbonyl]-2′-fluorobiphenyl-3-carbonitrile], 8.1; with `N#CCC1(n2cc(-c3ncnc4[nH]ccc34)cn2)CN(C2CCN(C(=O)c3ccc(-c4ccc(C#N)cc4)cc3)CC2)C1` [Example 126, 4′-[(4-{3-(cyanomethyl)-3-[4-(7H-pyrrolo[2,3-d]pyrimidin-4-yl)-1H-pyrazol-1-yl]azetidin-1-yl}piperidin-1-yl)carbonyl]biphenyl-4-carbonitrile], 6.3. On to `N#CCC1(n2cc(-c3ncnc4[nH]ccc34)cn2)CN(C2CCN(C(=O)c3ccc(-c4ccc(F)c(F)c4)c(F)c3)CC2)C1` [Example 127, (3-[4-(7H-pyrrolo[2,3-d]pyrimidin-4-yl)-1H-pyrazol-1-yl]-1-{1-[(2,3′,4′-trifluorobiphenyl-4-yl)carbonyl]piperidin-4-yl}azetidin-3-yl) acetonitrile], for which the “IC50 Ratio JAK2/JAK1” value is reported as 4.3. In the case of `N#CCC1(n2cc(-c3ncnc4[nH]ccc34)cn2)CN(C2CCN(C(=O)c3ccc(-c4cc(F)cc(C#N)c4)c(F)c3)CC2)C1` [Example 128, 4′-[(4-{3-(cyanomethyl)-3-[4-(7H-pyrrolo[2,3-d]pyrimidin-4-yl)-1H-pyrazol-1-yl]azetidin-1-yl}piperidin-1-yl)carbonyl]-2′,5-difluorobiphenyl-3-carbonitrile], the “IC50 Ratio JAK2/JAK1” value is listed as 3.5.

In the case of `N#CCC1(n2cc(-c3ncnc4[nH]ccc34)cn2)CN(C2CCN(C(=O)c3ccc(-c4cccc5ncccc45)c(F)c3)CC2)C1` [Example 129, {1-[1-(3-fluoro-4-quinolin-5-ylbenzoyl)piperidin-4-yl]-3-[4-(7H-pyrrolo[2,3-d]pyrimidin-4-yl)-1H-pyrazol-1-yl]azetidin-3-yl} acetonitrile], the “IC50 Ratio JAK2/JAK1” value was 7.9. `N#CCC1(n2cc(-c3ncnc4[nH]ccc34)cn2)CN(C2CCN(C(=O)c3ccc(-c4cccc5cnccc45)c(F)c3)CC2)C1` [Example 130, {1-[1-(3-fluoro-4-isoquinolin-5-ylbenzoyl)piperidin-4-yl]-3-[4-(7H-pyrrolo[2,3-d]pyrimidin-4-yl)-1H-pyrazol-1-yl]azetidin-3-yl}acetonitrile]: the “IC50 Ratio JAK2/JAK1” value is on record as 7.1. With `N#CCC1(n2cc(-c3ncnc4[nH]ccc34)cn2)CN(C2CCN(C(=O)c3ccc(-c4cccc5ccncc45)c(F)c3)CC2)C1` [Example 131, {1-[1-(3-fluoro-4-isoquinolin-8-ylbenzoyl)piperidin-4-yl]-3-[4-(7H-pyrrolo[2,3-d]pyrimidin-4-yl)-1H-pyrazol-1-yl]azetidin-3-yl} acetonitrile] the figure was 8.1; with `N#CCC1(n2cc(-c3ncnc4[nH]ccc34)cn2)CN(C2CCN(C(=O)c3ccc(-c4ccc5ccncc5c4)c(F)c3)CC2)C1` [Example 133, {1-[1-(3-fluoro-4-isoquinolin-7-ylbenzoyl)piperidin-4-yl]-3-[4-(7H-pyrrolo[2,3-d]pyrimidin-4-yl)-1H-pyrazol-1-yl]azetidin-3-yl} acetonitrile], 7.9.
